Target: T1, PKG-1α (Homo sapiens, UniProt Q13976)
T1 construct: transfected with an expression plasmid containing a full length WT-PKG-1α cDNA; made in house; host or cells: HEK-293T (methods); the results paragraph b527 says PASMC
T1 sequence (Q13976 2-671): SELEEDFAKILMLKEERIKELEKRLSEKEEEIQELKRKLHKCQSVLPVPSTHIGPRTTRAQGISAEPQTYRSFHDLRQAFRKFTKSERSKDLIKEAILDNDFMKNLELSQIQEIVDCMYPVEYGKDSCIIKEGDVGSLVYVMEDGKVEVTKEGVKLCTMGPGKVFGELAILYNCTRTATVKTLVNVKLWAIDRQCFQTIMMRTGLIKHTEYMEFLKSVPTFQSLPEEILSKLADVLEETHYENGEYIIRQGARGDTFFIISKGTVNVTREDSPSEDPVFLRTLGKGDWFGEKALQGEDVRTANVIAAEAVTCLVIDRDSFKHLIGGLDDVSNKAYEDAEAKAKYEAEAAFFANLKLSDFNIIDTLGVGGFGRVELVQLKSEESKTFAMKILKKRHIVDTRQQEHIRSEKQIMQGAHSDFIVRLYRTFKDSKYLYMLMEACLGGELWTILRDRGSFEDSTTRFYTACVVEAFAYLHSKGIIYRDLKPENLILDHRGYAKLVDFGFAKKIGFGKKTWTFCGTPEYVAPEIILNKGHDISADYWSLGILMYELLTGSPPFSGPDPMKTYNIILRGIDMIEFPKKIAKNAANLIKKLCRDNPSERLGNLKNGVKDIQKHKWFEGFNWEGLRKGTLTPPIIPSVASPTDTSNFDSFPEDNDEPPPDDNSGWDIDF
Assay: [3H]cGMP binding assay
Settings: SIN-1 500 μM 30 min
Procedure: HEK-293T cells were transiently transfected with either the WT-PKG-1α or the Y247FPKG-1α cDNA using Effectene transfection reagent (Qiagen), according to the manufacturer's instructions. Briefly, the cells were split the day before the transfection to low cell densities (25%) and were transfected 24 h later. After 48 h of transfection, the cells were incubated in DMEM serum free media containing 1% FBS and antibiotics for 4 h and then treated with or without SIN-1 (500 μM), for 30 min. This method produced an approximate 70% transfection efficiency of HEK-293T cells, as measured using green fluorescent protein vectors. […]
The batches of supernatant were pooled, and 2 μg of anti-PKG-1α antibody per mg of protein were added to the extract and rocked at 4° C. […] After 15 min of agitation at 4° C., the beads were pelleted by centrifugation, and the supernatant containing the PKG-1α protein was collected, quantified using Bradford reagent, and stored at −80° C.
To assay the binding of cGMP to WT- and Y247F-PKG-1α the enzymes were saturated with cGMP by incubating 50 μl aliquots of the diluted PKG constructs for 60 min at room temperature with 50 μl of [^3H]cGMP and 150 μl of cGMP-binding assay mixture (25 mM K2HPO4, 25 mM KH2PO4, 1 mM EDTA, pH 6.8, 2M NaCl, 200 μM 3-isobutyl-1-methylxanthine). […] The dissociation constant (Kd) values were determined using GraphPad Prism graphics.

3-morpholinosydnonimine N-ethylcarbamide [SIN-1]
Maximal [3H]cGMP binding to WT-PKG-1α: significantly attenuated

From patent US9447157B2, “Nitration shielding peptides and methods of use thereof” (Augusta University Research Institute, Inc., priority 2013, dated 2016)
